# Measurements as given in patent publication US11414454B2, “Compositions, methods, and systems for affinity-based protein identification and purification” (Auctus Biologies, Inc., priority 2017, dated 2022).
# No end group written: not given here.
# Columns and labels:
# [1] = molecular target: Bovine Serum Albumin (BSA) (Bos taurus, UniProt P02769); type: binding; conditions: fluorescence anisotropy, rhodamine labeled peptide; up to 10 μM BSA
# Procedure: (§1) 50 nM of RP-Tag Small (see Sequence 3, below) with an N-terminal Rhodamine B label was incubated with increasing concentrations of either RP-Tag Large (see Sequence 2) or Bovine Serum Albumin (BSA) in 50 mM Tris pH 8.0, 150 mM NaCl, 10 mM 2-mercaptoethanol, and 0.005% Tween 20 for 5 min in black 96-well plates at room temperature.
# (§2) Anisotropy was then measured, and a Kd calculated by fitting the data to the equation f=y0+(ymax−y0)*(Ptot+x+Kd−sqrt((Ptot+x+Kd)^2−4*Ptot*x))/(2*Ptot), where y0 is the baseline anisotropy, ymax is the maximum anisotropy, Ptot is the fixed concentration of labeled peptide used, x is the variable concentration of protein used, and Kd is the measured Kd.
# (§3) The indicated concentrations of RPtag (large) and an anti-His tag antibody (4E3D10H2/E3 purchased from ThermoFisher Scientific) were incubated with 1 nM rhodamine labeled native RPtag (small) peptide and 6×His peptide (Rhodamine-GHHHHHH), respectively, and fluorescence anisotropy measured. BSA incubated with native rhodamine labeled RPtag(small) is included as a control for non-specific binding. Kd's were calculated according to the equation f=y0+(ymax−y0)*(Ptot+x+Kd−sqrt((Ptot+x+Kd)^2−4*Ptot*x))/(2*Ptot), where y0 is the baseline anisotropy, ymax is the maximum anisotropy, Ptot is the fixed concentration of labeled peptide used, x is the variable concentration of protein used, and Kd is the measured Kd. We measured a Kd of 0.2±0.1 nM for RPtag(large) binding RPtag(small), and a Kd of 6±1 nM for the antibody/6×His tag pair.
# RPtag (large) = test: Fluorescence anisotropy Kd of rhodamine labeled RPtag (small) peptides for RPtag (large); type: binding, Thermoanaerobacter tengcongensis
# Procedure: as §1, §2, §3
# Regarding the studies shown in FIG. 14, increasing concentrations of unlabeled RPtag large with the indicated mutations (native, f137d, and f137e) were incubated for 1 h with 1 nM rhodamine labeled RPtag small peptide and the fluorescence anisotropy was measured. Resultant curves were fit with the equation f=y0+(ymax−y0)*(Ptot+x+Kd−sqrt((Ptot+x+Kd)^2−4*Ptot*x))/(2*Ptot), where y0 is the baseline anisotropy, ymax is the maximum anisotropy, Ptot is the fixed concentration of labeled peptide used, x is the variable concentration of protein used, and Kd is the measured Kd. Data are presented here as Ka=1/Kd. Log transformed Ka's were then compared by one-way ANOVA with Holm-Sidak post hoc correction. ***p<0.001, **p<0.01, *p<0.05. data are mean±SEM (n=3-4). Buffer was 50 mM Tris pH 8.0, 0.005% tween20. Proteins were expressed and purified by single step NiNTA chromatography as before. Peptides were synthesized solid-state and handled as previous.
# immobilized RP-Tag Large = test: Column elution trials of rhodamine labeled RP-Tag Small bound to immobilized RP-Tag Large; type: binding, Thermoanaerobacter tengcongensis
# Procedure: One embodiment of the disclosed RP-Tag system was tested by creating a column with one component bound to a solid, agarose-based matrix. In these experiments, a SulfoLink™ Immobilization kit (ThermoFisher scientific) was used to affix RP-Tag Large to a solid support, according to the manufacturer's instructions. For these experiments, an N-terminal linker was added to RP-Large that included a Cys residue. One of skill in the art is able to select various techniques and chemistries to aid in affixing either RP-Tag protein to a solid support matrix.
# The amount of protein linked to the column was determined using a BCA assay with Bovine Serum Albumin (BSA) as a standard. […] The linked resin was poured into an included column and the column capped with a frit included in the kit (see photos in FIG. 2). The column was equilibrated with several volumes of 50 mM Tris pH 8.5, 150 mM NaCl, 5 mM EDTA.
# 25 mL of 1 μM Rhodamine-6B labeled RP-Tag Small, in 50 mM Tris pH 8.5, 150 mM NaCl, 5 mM EDTA, was flowed over the column of immobilized RP-Tag Large protein. RP-Tag Small bound the column and formed a visibly bright red band (rhodamine B) at the top of the resin (see FIG. 2).
# Briefly, after binding, the RP-Tag Small red band was not observed to appreciably diffuse and/or elute after washing the column (and band) with various solutions. For these tests, 10 mL (5 column volumes) of various buffers were added to the column. The tested buffers ranged from about pH 1.5-13.7 and about 1 M sodium hydroxide.
# Table 1. Summary of elution trial data. The test system used was a column equilibrated with 50 mM Tris pH 8.5, 150 mM NaCl, 5 mM EDTA, and applied 25 mL 1 μM Rhodamine-6B labeled RP-small peptide in the same buffer. In cases where D-ribose was used, the indicated concentration was also included in the equilibration and loading buffer.
# F137D RPtag(large) = test: Compensatory mutation binding study by fluorescence anisotropy; set-up: species or system Thermoanaerobacter tengcongensis; conditions: 1 nM rhodamine labeled peptide
# Sequence of F137D RPtag(large) (as listed by the source, stated change not applied): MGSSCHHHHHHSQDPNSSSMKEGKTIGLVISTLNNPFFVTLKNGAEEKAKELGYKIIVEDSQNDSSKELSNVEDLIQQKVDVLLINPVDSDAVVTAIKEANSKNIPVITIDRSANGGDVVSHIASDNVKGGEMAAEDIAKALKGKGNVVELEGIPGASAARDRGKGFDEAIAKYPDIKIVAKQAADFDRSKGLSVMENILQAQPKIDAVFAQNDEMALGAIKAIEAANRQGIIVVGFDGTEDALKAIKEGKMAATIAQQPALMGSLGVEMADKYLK
# From the text: The possibility of creating compensatory mutations in the two sequences was investigated by modifying position 14 of RPtag(small) and position 137 of RPtag(large). First, a positively charged lysine (K) was introduced at position L14 of RPtag(small) (FIG. 14). […] Next, position F137 of RPtag(large) was mutated to aspartic acid (D), which is a negatively charged residue under physiologic conditions. This substitution was introduced into RPtag(large) to balance the charge with the L14K substitution, and help restore interaction between the two residues. […] In other embodiments, different compensatory mutations may be introduced at F137 and L14, as well as other positions in the two RPtag proteins.
# Regarding the studies shown in FIG. 14, increasing concentrations of unlabeled RPtag large with the indicated mutations (native, f137d, and f137e) were incubated for 1 h with 1 nM rhodamine labeled RPtag small peptide and the fluorescence anisotropy was measured. Resultant curves were fit with the equation f=y0+(ymax−y0)*(Ptot+x+Kd−sqrt((Ptot+x+Kd)^2−4*Ptot*x))/(2*Ptot), where y0 is the baseline anisotropy, ymax is the maximum anisotropy, Ptot is the fixed concentration of labeled peptide used, x is the variable concentration of protein used, and Kd is the measured Kd. Data are presented here as Ka=1/Kd. […]
# RPtag (large) resin = test: Affinity-based precipitation/pull-down with RPtag (large) resin; type: binding, Thermoanaerobacter tengcongensis; conditions: negative control peptide
# Sequence of RPtag (large) resin (as listed by the source): as the sequence (as listed by the source, stated change not applied) above, with D137F counted along it
# Procedure: The disclosed proteins and peptides were used in precipitation/pull-down assays. Specifically, rhodamine was tagged with the RPtag(small) Nd8Cd4 peptide and RPtag(large) was immobilized on a resin, as described above.
# Briefly, 100 μL 1000 nM rhodamine labeled RPtag(small) peptide was incubated with 2.5 uL wet settled RPtag (large) resin generated as (as described above) in phosphate buffered saline (PBS; Gibco)+1% BSA+0.005% Tween 20 at 4° C. for 60 min with continuous orbital shaking. Samples were then washed 3× with 500 μL of the same buffer with no peptide to remove unbound peptide. Bound RPtag(small) peptides were then eluted with 100 μL 100 mM glycine pH 1.5+0.005% Tween20, and the pH raised by adding 1 μL 1 M borate pH 10.0. The amount eluted was calculated from the blank subtracted fluorescence of the elution versus the load. After each elution, resin was washed once with 500 μL 6M GdnHCl and once with 500 μL phosphate buffered saline (Gibco)+1% BSA+0.005% Tween 20, before repeating the assay.
# Sequential precipitation/pulldown trials were performed with the rhodamine labelled RPtag(small) Nd8Cd4 peptide, and the RPtag(large)-resin. After binding and pull-down, the rhodamine-peptide was eluted in 100 mM glycine pH 1.5, the column was washed with water and 6 M guanidine hydrochloride, and then re-equilibrated with buffer (50 mM Tris pH 8.0, 10 mM EDTA). […]
# Sequence of Bovine Serum Albumin (BSA) (P02769 25-607): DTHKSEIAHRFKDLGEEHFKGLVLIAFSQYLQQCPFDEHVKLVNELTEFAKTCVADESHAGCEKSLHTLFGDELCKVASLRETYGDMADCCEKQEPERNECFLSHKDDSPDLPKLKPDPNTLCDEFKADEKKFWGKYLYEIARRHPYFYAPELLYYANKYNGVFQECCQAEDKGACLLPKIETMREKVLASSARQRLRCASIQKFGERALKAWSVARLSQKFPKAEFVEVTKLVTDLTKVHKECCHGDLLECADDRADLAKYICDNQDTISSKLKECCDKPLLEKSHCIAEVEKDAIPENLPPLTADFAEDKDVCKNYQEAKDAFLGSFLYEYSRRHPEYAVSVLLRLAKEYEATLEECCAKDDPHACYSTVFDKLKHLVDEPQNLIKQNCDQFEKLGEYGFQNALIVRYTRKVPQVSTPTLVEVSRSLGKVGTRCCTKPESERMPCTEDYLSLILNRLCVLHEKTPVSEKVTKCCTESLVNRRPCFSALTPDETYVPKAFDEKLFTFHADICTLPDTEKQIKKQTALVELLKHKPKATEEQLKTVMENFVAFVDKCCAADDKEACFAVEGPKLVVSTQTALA
sequence,measurement,setting,value
GEKIPNFIPAELKLITKENVQ [RP-Tag Small],binding to BSA,[1],no binding
same,Kd,"RPtag (large); 50 nM N-terminal Rhodamine B RP-Tag Small, 50 mM Tris pH 8.0, 150 mM NaCl, 10 mM 2-mercaptoethanol, 0.005% Tween 20",8 nM
same,Result of elution trial (bound rhodamine band),immobilized RP-Tag Large; 0.1M Tris pH 7.5 + 100 μM unlabeled RP tag peptide,"Partial band elution, slight"
same,Result of elution trial (bound rhodamine band),immobilized RP-Tag Large; 0.1M Tris pH 7.5 + 6M guanidine hydrochloride,Complete band elution
same,Result of elution trial (bound rhodamine band),immobilized RP-Tag Large; 0.1M Tris pH 7.5 + 6M guanidine hydrochloride + 10 mM D-ribose,"partial band elution,"
same,Result of elution trial (bound rhodamine band),immobilized RP-Tag Large; 0.1M Tris pH 7.5 + 6M guanidine hydrochloride + 100 mM D-ribose,"no band elution, significant"
same,Result of elution trial (bound rhodamine band),immobilized RP-Tag Large; 0.1M Tris pH 7.5 + 6M guanidine hydrochloride + 1M D-ribose,"No band elution, minor"
same,Result of elution trial (bound rhodamine band),immobilized RP-Tag Large; 5 column volumes 0.05M sodium acetate pH 4.6,No band diffusion/elution
same,Result of elution trial (bound rhodamine band),immobilized RP-Tag Large; 5 column volumes 0.1M Tris pH 7.5,No band diffusion/elution
same,Result of elution trial (bound rhodamine band),immobilized RP-Tag Large; 5 column volumes 0.1M Tris pH 8.0,No band diffusion/elution
same,Result of elution trial (bound rhodamine band),immobilized RP-Tag Large; 5 column volumes 0.1M Tris pH 8.5,No band diffusion/elution
same,Result of elution trial (bound rhodamine band),immobilized RP-Tag Large; 5 column volumes 0.1M glycine pH 1.5,Complete band elution
same,Result of elution trial (bound rhodamine band),immobilized RP-Tag Large; 5 column volumes 0.1M glycine pH 2.5,No band diffusion/elution
same,Result of elution trial (bound rhodamine band),immobilized RP-Tag Large; 5 column volumes 0.1M glycine pH 3.5,No band diffusion/elution
same,Result of elution trial (bound rhodamine band),immobilized RP-Tag Large; 5 column volumes 0.1M sodium phosphate pH 12.0,No band diffusion/elution
same,Result of elution trial (bound rhodamine band),immobilized RP-Tag Large; 5 column volumes 0.1M sodium phosphate pH 13.0,No band diffusion/elution
same,Result of elution trial (bound rhodamine band),immobilized RP-Tag Large; 5 column volumes 0.1M sodium phosphate pH 13.7,No band diffusion/elution
same,Result of elution trial (bound rhodamine band),immobilized RP-Tag Large; 5 column volumes 1M sodium hydroxide,No band diffusion/elution
same,stability of bound band on column,immobilized RP-Tag Large; room temperature,> 1 week
GEKIPNFIPAELKKITKENVQ [l14k],binding affinity for F137D RPtag(large),F137D RPtag(large),substantially restored the binding affinity
same,binding to native RPtag(large),"RPtag (large); 1 nM rhodamine labeled peptide, 50 mM Tris pH 8.0, 0.005% tween20",significantly impaired binding
GEKIPNFIP [Cd12],binding in pulldown,RPtag (large) resin,no binding
same,Kd,"RPtag (large); N-terminal rhodamine tagged peptide, unlabeled RPtag (large), 50 mM Tris pH 8.0, 0.005% Tween 20, mean ± SE",> 100000 nM
